Experimental data published in PubChem BioAssay (NCI).
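In this assay, cells in 96-well plates receive the compound at five concentrations for 48 hours. Endpoints are linearly interpolated between the surrounding concentrations. TGI: concentration producing complete growth inhibition.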

How the values were obtained:
Test in all cases: inhibition of tumour cell growth, NCI panel, 48 h
EKVX NSCLC = test system: EKVX NSCLC
HCT-15 colon = test system: HCT-15 colon
IGROV1 ovarian = test system: IGROV1 ovarian
HOP-62 NSCLC = test system: HOP-62 NSCLC
KM12 colon = test system: KM12 colon
UO-31 renal = test system: UO-31 renal
BT-549 breast = test system: BT-549 breast
COLO 205 colon = test system: COLO 205 colon
HT29 colon = test system: HT29 colon
UACC-62 melanoma = test system: UACC-62 melanoma
NCI-H522 lung = test system: NCI-H522 lung
MALME-3M melanoma = test system: MALME-3M melanoma
TK-10 renal = test system: TK-10 renal
SNB-19 CNS = test system: SNB-19 CNS
SF-539 CNS = test system: SF-539 CNS
NCI-H23 lung = test system: NCI-H23 lung
HCC-2998 colon = test system: HCC-2998 colon
SK-OV-3 ovarian = test system: SK-OV-3 ovarian
ACHN renal = test system: ACHN renal
NCI-H226 lung = test system: NCI-H226 lung
A498 renal = test system: A498 renal
SNB-75 CNS = test system: SNB-75 CNS
MOLT-4 leukemia = test system: MOLT-4 leukemia
DU-145 prostate = test system: DU-145 prostate
MCF7 breast = test system: MCF7 breast
NCI/ADR-RES ovarian = test system: NCI/ADR-RES ovarian
OVCAR-5 ovarian = test system: OVCAR-5 ovarian
MDA-MB-231 breast = test system: MDA-MB-231 breast
CCRF-CEM leukemia = test system: CCRF-CEM leukemia
LOX IMVI melanoma = test system: LOX IMVI melanoma
SF-295 CNS = test system: SF-295 CNS
U251 CNS = test system: U251 CNS
SK-MEL-2 melanoma = test system: SK-MEL-2 melanoma
786-0 renal = test system: 786-0 renal
M14 melanoma = test system: M14 melanoma
HCT-116 colon = test system: HCT-116 colon
HS 578T breast = test system: HS 578T breast
PC-3 prostate = test system: PC-3 prostate
UACC-257 melanoma = test system: UACC-257 melanoma
T-47D breast = test system: T-47D breast
RXF 393 renal = test system: RXF 393 renal
RPMI-8226 leukemia = test system: RPMI-8226 leukemia
MDA-MB-435 = test system: MDA-MB-435
MDA-N = test system: MDA-N
SN12C renal = test system: SN12C renal
K-562 leukemia = test system: K-562 leukemia
CAKI-1 renal = test system: CAKI-1 renal
HL-60(TB) leukemia = test system: HL-60(TB) leukemia
SF-268 CNS = test system: SF-268 CNS
SK-MEL-28 melanoma = test system: SK-MEL-28 melanoma
OVCAR-8 ovarian = test system: OVCAR-8 ovarian
SW-620 colon = test system: SW-620 colon
A549 NSCLC = test system: A549 NSCLC
NCI-H460 lung = test system: NCI-H460 lung
SR leukemia = test system: SR leukemia
SK-MEL-5 melanoma = test system: SK-MEL-5 melanoma
OVCAR-3 ovarian = test system: OVCAR-3 ovarian

[O-][n+]1nc(N2CCOCC2)nc2ccccc21
TGI (EKVX NSCLC): > 100 µM | TGI (HCT-15 colon): > 100 µM | TGI (IGROV1 ovarian): > 100 µM | TGI (HOP-62 NSCLC): > 100 µM | TGI (KM12 colon): > 100 µM | TGI (UO-31 renal): > 100 µM | TGI (BT-549 breast): > 100 µM | TGI (COLO 205 colon): > 100 µM | TGI (HT29 colon): > 100 µM | TGI (UACC-62 melanoma): > 100 µM | TGI (NCI-H522 lung): > 100 µM | TGI (MALME-3M melanoma): > 100 µM | TGI (TK-10 renal): > 100 µM | TGI (SNB-19 CNS): > 100 µM | TGI (SF-539 CNS): > 100 µM | TGI (NCI-H23 lung): > 100 µM | TGI (HCC-2998 colon): > 100 µM | TGI (SK-OV-3 ovarian): > 100 µM | TGI (ACHN renal): > 100 µM | TGI (NCI-H226 lung): > 100 µM | TGI (A498 renal): > 100 µM | TGI (SNB-75 CNS): > 100 µM | TGI (MOLT-4 leukemia): > 100 µM | TGI (DU-145 prostate): > 100 µM | TGI (MCF7 breast): > 100 µM | TGI (NCI/ADR-RES ovarian): > 100 µM | TGI (OVCAR-5 ovarian): > 100 µM | TGI (MDA-MB-231 breast): > 100 µM | TGI (CCRF-CEM leukemia): > 100 µM | TGI (LOX IMVI melanoma): > 100 µM | TGI (SF-295 CNS): > 100 µM | TGI (U251 CNS): > 100 µM | TGI (SK-MEL-2 melanoma): > 100 µM | TGI (786-0 renal): > 100 µM | TGI (M14 melanoma): > 100 µM | TGI (HCT-116 colon): > 100 µM | TGI (HS 578T breast): > 100 µM | TGI (PC-3 prostate): > 100 µM | TGI (UACC-257 melanoma): > 100 µM | TGI (T-47D breast): > 100 µM | TGI (RXF 393 renal): > 100 µM | TGI (RPMI-8226 leukemia): > 100 µM | TGI (MDA-MB-435): > 100 µM | TGI (MDA-N): > 100 µM | TGI (SN12C renal): > 100 µM | TGI (K-562 leukemia): > 100 µM | TGI (CAKI-1 renal): > 100 µM | TGI (HL-60(TB) leukemia): > 100 µM | TGI (SF-268 CNS): > 100 µM | TGI (SK-MEL-28 melanoma): > 100 µM | TGI (OVCAR-8 ovarian): > 100 µM | TGI (SW-620 colon): > 100 µM | TGI (A549 NSCLC): > 100 µM

NC(CC(=O)OCc1ccccc1)C(=O)OCc1ccccc1 (configuration not stated)
TGI (EKVX NSCLC): > 100 µM | TGI (HCT-15 colon): > 100 µM | TGI (IGROV1 ovarian): > 100 µM | TGI (HOP-62 NSCLC): > 100 µM | TGI (KM12 colon): > 100 µM | TGI (UO-31 renal): > 100 µM | TGI (COLO 205 colon): > 100 µM | TGI (UACC-62 melanoma): > 100 µM | TGI (NCI-H522 lung): > 100 µM | TGI (TK-10 renal): > 100 µM | TGI (SNB-19 CNS): > 100 µM | TGI (SF-539 CNS): > 100 µM | TGI (NCI-H23 lung): > 100 µM | TGI (HCC-2998 colon): 89.1 µM | TGI (NCI-H460 lung): > 100 µM | TGI (ACHN renal): > 100 µM | TGI (DU-145 prostate): > 100 µM | TGI (MCF7 breast): > 100 µM | TGI (NCI/ADR-RES ovarian): > 100 µM | TGI (OVCAR-5 ovarian): > 100 µM | TGI (SR leukemia): > 100 µM | TGI (CCRF-CEM leukemia): > 100 µM | TGI (LOX IMVI melanoma): > 100 µM | TGI (SF-295 CNS): > 100 µM | TGI (SK-MEL-2 melanoma): > 100 µM | TGI (786-0 renal): > 100 µM | TGI (M14 melanoma): > 100 µM | TGI (HCT-116 colon): > 100 µM | TGI (HS 578T breast): > 100 µM | TGI (PC-3 prostate): > 100 µM | TGI (UACC-257 melanoma): > 100 µM | TGI (T-47D breast): > 100 µM | TGI (RPMI-8226 leukemia): > 100 µM | TGI (MDA-MB-435): > 100 µM | TGI (MDA-N): > 100 µM | TGI (SN12C renal): > 100 µM | TGI (SK-MEL-5 melanoma): > 100 µM | TGI (CAKI-1 renal): > 100 µM | TGI (SF-268 CNS): > 100 µM | TGI (OVCAR-3 ovarian): > 100 µM | TGI (SK-MEL-28 melanoma): > 100 µM | TGI (OVCAR-8 ovarian): > 100 µM | TGI (SW-620 colon): > 100 µM | TGI (A549 NSCLC): > 100 µM
